Experimental data: US20070129410A1, “Octahydrophenanthrene hydrazinde derivatives useful as glucocorticoid receptor modulators” (Pfizer Inc., priority 2003, published 2007)

Key:
[1] = test system: IL-8 (Interleukin-8) production; assay: Glucocorticoid inhibition of IL-1 induced IL-8 production in SW1353 human chondrosarcoma cells; format: cell-based; conditions: 20 ng/ml IL-1 beta, 24 hours after IL-1 addition, ELISA, read-out: IC50, inhibition of IL-8 expression
Description: (§1) This assay, the glucocorticoid inhibition of IL-1 (Interleukin-1) induced MMP-1 (Matrix Metalloproteinase-1) and IL-8 (Interleukin-8) production in human chondrosarcoma cells, is conducted as follows: SW1353 human chondrosarcoma cells (obtained from ATCC) from passage 12 through passage 19 are used in a 96 well format assay. Cells are plated at confluence into 96 well plates in DMEM (Dulbecco's Modified Eagle Medium) with 10% fetal bovine serum and incubated at 37° C., 5% CO2. After 24 hours, serum containing media is removed and replaced with 200 ul/well DMEM containing 1 mg/L insulin, 2 g/L lactalbumin hydrosylate, and 0.5 mg/L ascorbic acid and returned to incubation at 37° C., 5% CO2. […] IL-8 production is assessed using the Quantikine human IL-8 ELISA kit from R&D Systems (D8050) on samples diluted 60-fold in RD5P Calibrator Diluent, following the manufacturer's protocol. The percent of the average IL-1 control is determined for the average of each of the triplicate samples following subtraction of the average signal from untreated cells. IC50's are determined from log linear plots of the percent of control versus the concentration of inhibitor. […] MMP-1 production is assessed via the Bio-Trak MMP-1 ELISA kit from Amersham (RPN2610) on 100 ul of neat sample following the manufacturer's protocol. […]

[2] = test system: MMP-1 (Matrix Metalloproteinase-1) production; assay: Glucocorticoid inhibition of IL-1 induced MMP-1 production in SW1353 human chondrosarcoma cells; format: cell-based; conditions: 20 ng/ml IL-1 beta, 72 hours after IL-1 addition, ELISA, read-out: IC50, inhibition of MMP1 expression
Description: as §1

IC50 [1]: 5 nM
IC50 [2]: 5 nM
SMILES: C[C@@H]1C[C@H]2[C@@H]3CCC4=CC(=O)C=C[C@]4(C)[C@@]3(F)[C@@H](O)C[C@]2(C)[C@@]1(O)C(=O)CO [Dexamethasone]
